# According to ChEMBL document CHEMBL1201862, “PubChem BioAssay data set” (2004):
#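 Method: 48-hour compound exposure of cells in 96-well plates, five concentrations, linear interpolation of endpoints. The concentration for 50% growth inhibition is given as GI50.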 Activity calls are given as the source filed them. No stated cut-off is given here; in the data, active = GI50 up to about 1.1 µM and inactive = higher.
# How the values were obtained:
# Assay in all cases: DTP human tumour cell line panel, 48 h
# SR = test system: SR
# T47D = test system: T47D
# MCF7 = test system: MCF7
# PC-3 = test system: PC-3
# MDA-MB-231 = test system: MDA-MB-231
# DU-145 = test system: DU-145
# SNB-19 = test system: SNB-19
# NCI-H23 = test system: NCI-H23
# OVCAR-5 = test system: OVCAR-5
# UACC-257 = test system: UACC-257
# BT-549 = test system: BT-549
# A498 = test system: A498
# KM12 = test system: KM12
# HCT-116 = test system: HCT-116
# A549 = test system: A549
# COLO 205 = test system: COLO 205
# HCC 2998 = test system: HCC 2998
# CCRF-CEM = test system: CCRF-CEM
SMILES,GI50 (SR),GI50 (T47D),GI50 (MCF7),GI50 (PC-3),GI50 (MDA-MB-231),GI50 (DU-145),GI50 (SNB-19),GI50 (NCI-H23),GI50 (OVCAR-5),GI50 (UACC-257),GI50 (BT-549),GI50 (A498),GI50 (KM12),GI50 (HCT-116),GI50 (A549),GI50 (COLO 205),GI50 (HCC 2998),GI50 (CCRF-CEM)
N#C/N=C1/c2ccccc2/C(=N/C#N)c2cc(CO)ccc21,17 µM (inactive),31.6 µM (inactive),30.6 µM (inactive),33.7 µM (inactive),71.4 µM (inactive),26 µM (inactive),51.8 µM (inactive),27.1 µM (inactive),50.9 µM (inactive),26.6 µM (inactive),18 µM (inactive),23.5 µM (inactive),31.8 µM (inactive),29.2 µM (inactive),20.9 µM (inactive),,,
O=C(O)C1CCCN1Cc1ccc2c(c1)OCO2 (stereo not drawn),14.5 µM (inactive),> 100 µM (inactive),> 100 µM (inactive),> 100 µM (inactive),> 100 µM (inactive),> 100 µM (inactive),> 100 µM (inactive),> 100 µM (inactive),> 100 µM (inactive),> 100 µM (inactive),> 100 µM (inactive),> 100 µM (inactive),> 100 µM (inactive),> 100 µM (inactive),> 100 µM (inactive),> 100 µM (inactive),,
CN(C)C(=S)C(Cl)(c1ccccc1)c1ccccc1,,22.4 µM (inactive),28.6 µM (inactive),35.6 µM (inactive),59.7 µM (inactive),40.6 µM (inactive),> 100 µM (inactive),53.3 µM (inactive),> 100 µM (inactive),> 100 µM (inactive),> 100 µM (inactive),> 100 µM (inactive),46.3 µM (inactive),38.4 µM (inactive),59.8 µM (inactive),85.7 µM (inactive),> 100 µM (inactive),27.1 µM (inactive)
CCC1CCN=C(Cn2cc(C)c(=O)[nH]c2=O)N1 (stereo not drawn),,> 100 µM (inactive),> 100 µM (inactive),> 100 µM (inactive),> 100 µM (inactive),> 100 µM (inactive),> 100 µM (inactive),> 100 µM (inactive),> 100 µM (inactive),> 100 µM (inactive),> 100 µM (inactive),> 100 µM (inactive),,> 100 µM (inactive),> 100 µM (inactive),> 100 µM (inactive),> 100 µM (inactive),0.201 µM (active)
COc1ccc(CC(COS(=O)(=O)c2ccc(C)cc2)NS(=O)(=O)c2ccc(C)cc2)cc1 (stereo not drawn),,5.45 µM (inactive),8.24 µM (inactive),14.8 µM (inactive),> 53.5 µM (inactive),10.8 µM (inactive),12.6 µM (inactive),13.7 µM (inactive),17.5 µM (inactive),15.8 µM (inactive),5.71 µM (inactive),12.8 µM (inactive),16.9 µM (inactive),12.8 µM (inactive),12.1 µM (inactive),11.7 µM (inactive),11.9 µM (inactive),
Nc1nc(Br)nc2ncn(C3CC(O)C(CO)O3)c12 (stereo not drawn),,> 100 µM (inactive),> 21.3 µM (inactive),> 100 µM (inactive),> 100 µM (inactive),> 100 µM (inactive),42.2 µM (inactive),3.76 µM (inactive),> 100 µM (inactive),> 100 µM (inactive),46 µM (inactive),> 100 µM (inactive),> 100 µM (inactive),26.4 µM (inactive),18 µM (inactive),67.3 µM (inactive),> 60.8 µM (inactive),< 0.01 µM (active)
CCN(CC)C(=S)SC [METHYLDIETHYL CARBAMODITHIOATE],,> 100 µM (inactive),> 100 µM (inactive),52.5 µM (inactive),> 100 µM (inactive),> 100 µM (inactive),> 100 µM (inactive),> 100 µM (inactive),> 100 µM (inactive),> 100 µM (inactive),> 100 µM (inactive),> 100 µM (inactive),,> 100 µM (inactive),> 100 µM (inactive),> 100 µM (inactive),> 100 µM (inactive),> 100 µM (inactive)
